# Laboratory results taken from patent publication US5594001A, “Polycyclic systems, and derivatives thereof, as neurotransmitter release enhancers useful in the treatment of cognitive disorders” (The DuPont Merck Pharmaceutical Company, priority 1994, dated 1997).
# Experiments:
# [1] = tested on: memory disruption induced by hypoxia, male CD rats; test: Rat Passive Avoidance (PA) Hypoxia Induced Amnesia; format: in vivo, rat (male CD); conditions: Table II; SC; median retention latency vs vehicle
# Excerpt: Rat Passive Avoidance (PA) Hypoxia Induced Amnesia:
# Unfasted male CD rats, weighing between 165-210 grams, were trained in a PA apparatus using the following procedure: rats were placed in the clear side of the two compartment chamber and allowed 90 seconds to enter the dark compartment. Ten seconds after entering the dark chamber, a 3 second footshock (1.0 mA) was applied to the grid floor followed by an additional 10 second delay, and another 3 second footshock was applied. Retentions were tested 4 hours later. The rats were allowed 300 seconds to enter the dark compartment; time was taken. Memory disruption was induced by exposing the rats to a gas mixture containing 6.5% oxygen supplemented with nitrogen for 30 minutes before passive avoidance training. Doses of the test compound were administered (0.1 ml/100 g, SC.) relative to time of PA training.
# [2] = tested on: stimulus-induced acetylcholine release, slices from the parietal cortex; test: Neurotransmitter (ACh) release assay, rat cortex slices, K+ stimulated; format: cell-based, rat (male Wistar); conditions: Table II, 10 μM, % increase of drug-induced ACh release;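 note: S2/S1 ratio relative to drug-free control slices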
# Procedure: The neurotransmitter release activities of the compounds of this invention were determined using standard biochemical assay procedures for example, the neurotransmitter release assay as described below.
# Neurotransmitter release assay.
# The neurotransmitter (Ach) release activities of the compounds of this invention were determined by the assay as described by Nickolson, et al., Drug Development Research, (1990) 19: 285-300, a modification of the procedure described by Mulder, et al., Brain Res., (1974) 70: 372.
# Male Wistar rats (Charies River) weighing 175-200 grams were used. Rats were decapitated and brains were dissected immediately. Slices (0.3 mm thick) from the parietal cortex were prepared (approximately 100 mg wet weight) and were incubated in 10 ml KrebsRinger medium (KR) containing NaCl (116 mM), KCl (3 mM), CaCl2 (1.3 mM), MgCl2 (1.2 mM), KH2 PO4 (1.2 mM), Na2 SO4 (1.2 mM), NaHCO3 (25.0 mM), and glucose (11.0 mM), to which was added 10 uCi ^3 H-choline (specific activity approximately 35 Ci/mM; NEN) and […] unlabeled choline to give a final concentration of one micromole. The brain preparations were incubated for 30 min. at 37° C. under a steady flow of 95% O2 /5% CO2. Under these conditions, part of the radioactive choline taken up by the preparation was converted into radioactive acetylcholine (ACh) by the cholinergic nerve endings stored in synaptic vesicles, and released upon depolarization by high potassium ion (K+) containing media.
# After labelling of the ACh stores, the slices were washed three times with non-radioactive KR medium and transferred to a superfusion apparatus to measure the drug effects on ACh release. The superfusion apparatus consisted of 10 thermostated glass columns of 5 mm diameter that were provided with GF/F glass fiber filters to support the slices (approximately 10 mg tissue/column). Superfusion was carried out in KR-medium (0.3 ml/min.) containing […] hemicholine-3 (HC-3). The HC-3 prevents the reuptake of choline formed during the superfusion from phospholipids and released ACh, which would be converted into unlabeled ACh and released in preference to the preformed labeled ACh. The medium was delivered by a 25-channel peristaltic pump (Ismatec by Brinkman) and warmed to 37° C. in a thermostated stainless steel coil before entering the superfusion column. Each column was provided with a 4-way slider valve (Beckmann instruments) which allowed rapid change of low to high K+/KR-medium, and with two 10-channel 3-way valves that were used to change from drug-free to drug-containing low and high K+/KR-medium. After 15 min. of washout of non-specifically bound radioactivity, collection of 4 min. fractions was initiated. After three 4 min. collections, the original medium was changed to a KR-medium in which the KCl concentration had been increased to 25 mM (high K+ medium) (S1). Depolarization-induced stimulation of release by high K+/KR-medium lasted for 4 min. Drug free low and high K+/KR-media were then substituted by drug- and vehicle-containing low- and high-K+/KR-medium, and superfusion was continued for three 4 min. collections with low K+/KR-medium, one 4 min. collection with high K+/KR-medium (s2), and two 4 min. collections with low K+/KR-medium.
# Drug was added to the media by 100-fold dilutions of appropriate concentrations of the drug (in 0.9% saline) with either low- or high-K+/KR-medium. For comparative purposes, linopirdine was also run.
# All superfusion fractions were collected in liquid scintillation counting vials. After superfusion, the slices were removed from the superfusion columns and extracted with 1.0 ml of 0.1N HCl. Liquiscint (NEN) counting fluid (12 ml) was added to superfusion fractions and extracts, and the samples were counted in a Packard Tricarb Liquid Scintillation Counter. No corrections were made for quenching. […]
# [3] = tested on: ACh level in the rat hippocampus; test: Microdialysis, ACh levels in the rat hippocampus in vivo; design: species or system rat (male Wistar); conditions: Table IV
# How it was run: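 Male Wistar rats with dorsal hippocampal probes were perfused with aCSF containing 100 μM physostigmine, and 20-min dialysates were assayed by HPLC-EC. After 3 baseline samples, drug or vehicle was given and sampling continued 3 h. ACh peak heights are expressed as percent change over mean baseline.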
smiles,measurement,setting,value
"O=C1N(c2ccccc2)c2ccccc2C1(Cc1ccncc1)Cc1ccncc1 [linopirdine, 3,3-bis-(4-pyridinylmethyl)-1-phenylindolin-2-one, reference compound]",PA Hypoxia,[1],Active
same,activation at 10 µM,[2],408%
same,"AUC, Area % under the curve","[3]; 5 mg/kg, vehicle water",83 ± 73%
same,"Peak, maximal % increase of ACh release over baseline","[3]; 5 mg/kg, vehicle water",50 ± 16%
same,time of Peak after administration,"[3]; 5 mg/kg, vehicle water",40 min
same,"Duration, minutes of release above statistical significance","[3]; 5 mg/kg, vehicle water, NSP = no significant points",20 min
same,"AUC, Area % under the curve","[3]; 10 mg/kg, vehicle methocel",212 ± 61%
same,"Duration, minutes of release above statistical significance","[3]; 10 mg/kg, vehicle methocel",100 min
same,"Peak, maximal % increase of ACh release over baseline","[3]; 10 mg/kg, vehicle methocel",62 ± 15%
same,time of Peak after administration,"[3]; 10 mg/kg, vehicle methocel",40 min
same,"AUC, Area % under the curve","[3]; 10 mg/kg, vehicle water",191 ± 68%
same,"Duration, minutes of release above statistical significance","[3]; 10 mg/kg, vehicle water",60 min
same,"Peak, maximal % increase of ACh release over baseline","[3]; 10 mg/kg, vehicle water",56 ± 7%
same,time of Peak after administration,"[3]; 10 mg/kg, vehicle water",40 min
same,"AUC, Area % under the curve","[3]; 20 mg/kg, vehicle methocel",600 ± 71%
same,"Duration, minutes of release above statistical significance","[3]; 20 mg/kg, vehicle methocel",140 min
same,"Peak, maximal % increase of ACh release over baseline","[3]; 20 mg/kg, vehicle methocel",117 ± 36%
same,time of Peak after administration,"[3]; 20 mg/kg, vehicle methocel",40 min
same,"AUC, Area % under the curve","[3]; 20 mg/kg, vehicle water",315 ± 108%
same,"Duration, minutes of release above statistical significance","[3]; 20 mg/kg, vehicle water",100 min
same,"Peak, maximal % increase of ACh release over baseline","[3]; 20 mg/kg, vehicle water",68 ± 26%
same,time of Peak after administration,"[3]; 20 mg/kg, vehicle water",100 min
